Data on six molecules can be found in patent publication US20240207355A1, “PHARMACEUTICAL COMPOSITION FOR ENHANCING ANTICANCER EFFECT OF ANTICANCER DRUG” (L-BASE CO., LTD., priority 2021, published 2024).

Read-outs that look alike come from different tables or passages of the source. Ends that are not written are not given here. Peptide text beside a SMILES is read from it. * marks the point of attachment. Benzoyl(3-Ph) = O=C(c1cccc(-c2ccccc2)c1)*; Benzoyl(4-OMe) = COc1ccc(C(=O)*)cc1

Data set [1] deals with lung cancer cell line H820. In words: MTT assay, cell viability inhibition in lung cancer cell line H820. Format: cell-based. On the technique in general: Formazan colour is commonly taken as a measure of viable cells.
Protocol: First, [sequence] was administered at a concentration of 10 μM to H820, and then, the targeted anticancer drug Osimertinib was administered either alone or in combination at a concentration of 5 μM, and the cell viability inhibitory effect was compared 48 hours later.
Data set [2] has as its system H1975/OR. In words: MTT assay, cell viability inhibition in lung cancer cell line H1975/OR. The following applies: for cell viability decrease compared to the control group: human, 5 μM. How it is done: (§1) Specifically, cells were seeded at 2×10^3/100 μl per well on a 96-well plate, and after culturing for 24 hours, the compound according to the present invention was administered; 4 hours later, anticancer drugs were treated to each cancer cell. The treatment concentration and treatment time of the compound and anticancer drug are specifically described in the embodiment. After completing the treatment of the compound and anticancer drug, CellTiter-96® reagent (Promega Co., USA) was reacted at 5% CO2, 37° C. after adding 10 μl per well. After 3 hours, absorbance was measured at 490 nm using a spectrophotometer (SPECTROstar^Nano, BMG).
Additionally, H1975/OR was treated with 3-PhPh-[…] at a concentration of 5 μM, and after 4 hours, the chemotherapeutic agent Alimta was administered either alone or in combination at a concentration of 0.1 μM, and after 72 hours, the effects of inhibiting cell viability were compared.
Subsequently, H1975/OR was treated with 3-PhPh-[…] at a concentration of 5 μM, and after 4 hours, the targeted anticancer drug Osimertinib was administered either alone or in combination at a concentration of 2.5 μM, and after 68 hours, the effects of inhibiting cell viability were compared.

Data set [3] relates to non-small cell lung cancer cell line PC9/OR. In words: MTT assay, cell viability inhibition in non-small cell lung cancer cell line PC9/OR. Format: cell-based. The following applies: 68 h.
The test system of data set [4] is H820 lung cancer cell line. In words: Heterotransplant lung cancer animal model (H820), tumor growth. Format: in vivo. As to conditions: H820 nude mice; 3-PhPh-AQTGTGKT 10 mpk alone, 7 times at a two-day interval for 14 days; FIG. 6A. How it is done:
The test substances were administered intravenously and orally 7 times at 2-day intervals.
Nude mice transplanted with H820 lung cancer cell line, an animal model of lung cancer described in the “Experimental Materials and Methods,” was treated 7 times at a two-day interval for 14 days with 3-PhPh-[…] at a dose of 10 mpk, and Osimertinib was orally administered daily at 2.5 mpk. Then, the growth of the tumor was compared.

Data set [5] deals with p-Beclin1S15. The experiment in a line: Immunohistochemical staining of p-Beclin1S15 in H820 tumor tissue. It is filed as in vivo. As to conditions: H820 nude mice tumor; 3-PhPh-AQTGTGKT 10 mpk alone, 7 times at 2-day intervals; IHC; FIG. 7. How it is done: Tissue embedded in paraffin was cut to a thickness of 4 μm and affixed to a slide, then thoroughly dried and the IHC experiment procedure was performed. Each slide was deparaffinized, and endogenous enzymes were removed using citrate buffer (pH 6.0). Then, p-Beclin1S15 antibody was diluted to 1:100 and treated for 15 hours at 4° C. After washing 4 times with TBST wash buffer, rabbit HRP was treated for secondary antibody reaction and reacted at room temperature for 30 minutes. After the substrate for the antibody reaction was added, when the color appeared, the slide was washed and sealed, and after slide scanning, the result was read.
Nude mice transplanted with H820 lung cancer cell line, an animal model of lung cancer described in the “Experimental Materials and Methods,” was treated 7 times at 2-day intervals for 14 days with 3-PhPh-[…] at a dose of 10 mpk. Osimertinib was orally administered daily at 2.5 mpk, followed by tumor sampling and p-Beclin1S15 immunostaining.

Data set [6] deals with lung cancer cell line H1975. In words: MTT assay, cell viability inhibition in lung cancer cell line H1975. As to conditions: for cell viability decrease compared to the control group: human; for cytotoxicity at 0.5 µM: Osimertinib 0.5 μM alone. The method, then:
as §1
H1975 was treated with 3-PhPh-[…] at a concentration of 25 μM and after 4 hours, Osimertinib was administered at a concentration of 1.25 μM, either alone or in combination, and the cell viability inhibitory effects were compared 68 hours later.
Subsequently, H1975 was treated with 4-PhPh-[…] at a concentration of 2 μM, and at the same time, Osimertinib was administered at a concentration of 1 μM, either alone or in combination, and the cell viability inhibitory effects were compared 48 hours later.
Next. H1975 was treated with Ac-[…] at a concentration of 10 μM, and at the same time, Osimertinib was administered at a concentration of 0.5 μM, either alone or in combination, and the cell viability inhibitory effects were compared 48 hours later.
Furthermore, H1975 was treated with 4-MeOPh-[…] at a concentration of 10 μM and simultaneously, a targeted anticancer drug, Osimertinib, was administered either alone or in combination at a concentration of 0.5 μM, and after 48 hours, the effects of inhibiting cell viability were compared.
Similarly, the lung cancer cell line H1975 was treated with 4-PhPh-[…] at a concentration of 2 μM according to the MTT assay method described in the “Experimental Materials and Methods”. At the same time, Alimta, a chemotherapeutic agent, was administered either alone or in combination at a concentration of 0.2 μM, and after 48 hours, the effects of inhibiting cell viability were compared.
The anticancer effect of the triple co-administration was compared with the 3-PhPh-[…] single treatment group, and the Osimertinib and Alimta co-treatment group.

Data set [7] has as its system breast cancer cell line HCC1937. In words: MTT assay, cell viability inhibition in breast cancer cell line HCC1937. Format: cell-based. How it is done: After 24 hours, the cell viability inhibitory effect was compared.
After 48 hours, the cell viability inhibitory effect was compared.
After 72 hours, the cell viability inhibitory effect was compared.

Data set [8] relates to H1975 cell line. The following applies: H1975 Balb/C nude mice.
Protocol: H1975 cells were mixed with matrigel in a 1:1 ratio at a concentration of 5×10^6 cells/mouse, and each was subcutaneously inoculated at 200 μl into the flank of the mouse once. After the inoculation, it was confirmed that the volume of the formed tumor reached 70˜130 mm^3, and then random grouping was carried out. After the grouping, Osimertinib was administered orally every day, and after the growth of the tumor was inhibited, the point of re-growth was identified and the co-administration with the test substance was started. The test substances were administered intravenously 7 times at 2-day intervals.
After inoculating the H1975 cell line in 4-week-old female Balb/C nude mice, the presence and growth of the tumor were observed and the short and long axes of the tumor were measured to calculate the volume. When the volume of the tumor reached 70-120 mm^3, the groups were randomly separated and PBS, the negative control group, and Osimertinib at 5 mpk were orally administered daily.
The first day of administration was set as day 1, and the volume of the tumor was measured twice a week.
Accordingly, the individuals who orally administered 5 mpk Osimertinib every day for 28 days were further divided into two groups and observed until the 32nd day of administration.

In the case of `C[C@H](NC(=O)c1cccc(-c2ccccc2)c1)C(=O)N[C@@H](CCC(N)=O)C(=O)N[C@H](C(=O)NCC(=O)N[C@H](C(=O)NCC(=O)N[C@@H](CCCCN)C(=O)N[C@H](C(=O)O)[C@@H](C)O)[C@@H](C)O)[C@@H](C)O` ({Benzoyl(3-Ph)}-AQTGTGKT-OH), the “cell viability decrease compared to the control group” value (from here on “cell viability decrease”) in data set [1] (human, 72 h, 40 μM) is “about 8%”; in data set [2] (68 h), “about 17%”; in data set [2] (72 h), “about 6.5%”; in data set [3] (human, 25 μM), “approximately 0.2%”; in data set [6] (68 h, 25 μM), “about 10%”. In data set [4], the “tumor viability reduction compared to the control group (PBS administered group)” value is “about 38%”. The “expression of p-Beclin1S15 compared to the group receiving Osimertinib alone” value in data set [5] is on record as “reduced”. Moreover, in data set [7] (human, 72 h, 10 μM), the “decrease in cell viability compared to the control group” value (“decrease in cell viability” below) was “about 3%”.

In the case of `COc1ccc(C(=O)N[C@@H](C)C(=O)N[C@@H](CCC(N)=O)C(=O)N[C@H](C(=O)NCC(=O)N[C@H](C(=O)NCC(=O)N[C@@H](CCCCN)C(=O)N[C@H](C(=O)O)[C@@H](C)O)[C@@H](C)O)[C@@H](C)O)cc1` ({Benzoyl(4-OMe)}-AQTGTGKT-OH), the “cell viability decrease” value in data set [6] (48 h, 10 μM) is given as “about 6%”. In addition, the “decrease in cell viability” value in data set [7] (human, 48 h, 5 μM) was “about 4.6%”.

Consider `Nc1nc2[nH]cc(CCc3ccc(C(=O)N[C@@H](CCC(=O)O)C(=O)O)cc3)c2c(=O)[nH]1` [Alimta, Pemetrexed, reference compound], for which the cytotoxicity at 0.1 µM in data set [2] (Homo sapiens, NCI-H1975, 72 h, read-out: cell viability decrease compared to the control group) was roughly 8.3%. Besides, the cytotoxicity at 0.2 µM in data set [6] (Homo sapiens, NCI-H1975, 48 h, read-out: cell viability decrease compared to the control group, H1975, Alimta 0.2 μM alone, 48 hours, FIG. 1E) is roughly 6%.

`O=C(c1cc(Cc2n[nH]c(=O)c3ccccc23)ccc1F)N1CCN(C(=O)C2CC2)CC1` [Olaparib, reference compound]: in data set [7] (Homo sapiens, HCC1937, 24 h, read-out: decrease in cell viability compared to the control group), the cytotoxicity at 2.5 µM is roughly 1.2%.

Consider `C=CC(=O)Nc1cc(Nc2nccc(-c3cn(C)c4ccccc34)n2)c(OC)cc1N(C)CCN(C)C` [Osimertinib], for which, in data set [1] (NCI-H820, 48 h, read-out: cell viability decrease compared to the control group), the cytotoxicity at 5 µM was roughly 28%. Besides, the cytotoxicity at 6 µM in data set [1] (NCI-H820, 72 h, read-out: cell viability decrease compared to the control group) was roughly 15%. Besides, the cytotoxicity at 2.5 µM in data set [2] (Homo sapiens, NCI-H1975, 68 h, read-out: cell viability decrease compared to the control group) is roughly 7%. Further, in data set [3] (PC9-OR, read-out: cell viability decrease compared to the control group), the cytotoxicity at 4 µM was roughly 10%. Also, the cytotoxicity at 0.5 µM in data set [6] (Homo sapiens, NCI-H1975, 48 h, read-out: cell viability decrease compared to the control group, H1975, 48 hours, FIG. 1C) is roughly 12%; in data set [6] (Homo sapiens, NCI-H1975, 48 h, read-out: cell viability decrease compared to the control group, H1975, 48 hours, FIG. 1D), roughly 21%. Further, the cytotoxicity at 1 µM in data set [6] (Homo sapiens, NCI-H1975, 48 h, read-out: cell viability decrease compared to the control group, H1975, Osimertinib 1 μM alone, 48 hours, FIG. 1B) is roughly 5%. Further, in data set [6] (Homo sapiens, NCI-H1975, 68 h, read-out: cell viability decrease compared to the control group, H1975, Osimertinib 1.25 μM alone, 68 hours, FIG. 1A), the cytotoxicity at 1.25 µM is roughly 19%. Further, the “growth of the tumor compared to the PBS group” value in data set [8] (Osimertinib 5 mpk orally daily, before resistance, P<0.001) is on record as “significantly suppressed”. Also, in data set [8] (all groups), the “weight loss or death of animals during the experiment” value is given as “No weight loss or death”.

With “AQTGTGKT [alanine-glutamine-threonine-glycine-threonine-glycine-lysine-threonine]”, the “cell viability decrease” value in data set [1] (H820, AQTGTGKT 10 μM alone, 48 hours, FIG. 2A) is on record as “about 15%”. Further, the “decrease in cell viability” value in data set [7] (HCC1937, AQTGTGKT 5 μM alone, 24 hours, FIG. 4A) is “no decrease in cell viability”.
